Experimental data taken from US10202361B2, “Pyridazinones as herbicides” (E I DU PONT DE NEMOURS AND COMPANY, priority 2014, dated 2019).

Assays:
Assay type in all cases: in vivo
[1] = test system: barnyardgrass (Echinochloa crus-galli); assay: Test A pre-/postemergence greenhouse herbicide test; settings: Postemergence, 0 to 100 scale (0 no effect, 100 complete control), approx. 10 d
Source text: (§1) Seeds of plant species selected from barnyardgrass (Echinochloa crus-galli), crabgrass, Large (large crabgrass, Digitaria sanguinalis), foxtail, giant (giant foxtail, Setaria faberii), morningglory (Ipomoea spp.), pigweed (Amaranthus retroflexus), velvetleaf (Abutilon theophrasti), wheat (Triticum aestivum), and corn (Zea mays) were planted into a blend of loam soil and sand and treated preemergence with a directed soil spray using test chemicals formulated in a non-phytotoxic solvent mixture which included a surfactant. At the same time these species were also treated with postemergence applications of test chemicals formulated in the same manner.
(§2) Plants ranged in height from 2 to 10 cm and were in the one- to two-leaf stage for the postemergence treatment. Treated plants and untreated controls were maintained in a greenhouse for approximately 10 d, after which time all treated plants were compared to untreated controls and visually evaluated for injury. Plant response ratings, summarized in Table A, are based on a 0 to 100 scale where 0 is no effect and 100 is complete control. A dash (-) response means no test result.

[2] = test system: corn (Zea mays); assay: as above; settings: 0 to 100 scale (0 no effect, 100 complete control), approx. 10 d
Source text: as §1, §2

[3] = test system: crabgrass, Large (large crabgrass, Digitaria sanguinalis); assay: as above; settings: 0 to 100 scale (0 no effect, 100 complete control), approx. 10 d
Source text: as §1, §2

[4] = test system: foxtail, giant (giant foxtail, Setaria faberii); assay: as above; settings: 0 to 100 scale (0 no effect, 100 complete control), approx. 10 d
Source text: as §1, §2

[5] = test system: morningglory (Ipomoea spp.); assay: as above; settings: 0 to 100 scale (0 no effect, 100 complete control), approx. 10 d
Source text: as §1, §2

[6] = test system: pigweed (Amaranthus retroflexus); assay: as above; settings: 0 to 100 scale (0 no effect, 100 complete control), approx. 10 d
Source text: as §1, §2

[7] = test system: velvetleaf (Abutilon theophrasti); assay: as above; settings: 0 to 100 scale (0 no effect, 100 complete control), approx. 10 d
Source text: as §1, §2

[8] = test system: wheat (Triticum aestivum); assay: as above; settings: 0 to 100 scale (0 no effect, 100 complete control), approx. 10 d
Source text: as §1, §2

[9] = test system: barnyardgrass (Echinochloa crus-galli); assay: Test B flooded paddy test; settings: Flood, 250 g ai/ha; scale of 0 to 100, 0 is no effect, 100 is complete control; 13 to 15 d
Protocol: (§3) Plant species in the flooded paddy test selected from rice (Oryza sativa), small-flower sedge, umbrella (small-flower umbrella sedge, Cyperus difformis), ducksalad (Heteranthera limosa), and barnyardgrass (Echinochloa crus-galli) were grown to the 2-leaf stage for testing. At time of treatment, test pots were flooded to 3 cm above the soil surface, treated by application of test compounds directly to the paddy water, and then maintained at that water depth for the duration of the test. Treated plants and controls were maintained in a greenhouse for 13 to 15 d, after which time all species were compared to controls and visually evaluated. Plant response ratings, summarized in Table B, are based on a scale of 0 to 100 where 0 is no effect and 100 is complete control. A dash (-) response means no test result.

[10] = test system: ducksalad (Heteranthera limosa); assay: Test B flooded paddy test; settings: Flood, 250 g ai/ha; scale of 0 to 100, 0 is no effect, 100 is complete control; 13 to 15 d
Protocol: as §3

[11] = test system: rice (Oryza sativa); assay: Test B flooded paddy test; settings: Flood, 250 g ai/ha; scale of 0 to 100, 0 is no effect, 100 is complete control; 13 to 15 d
Protocol: as §3

[12] = test system: sedge, umbrella (small-flower umbrella sedge, Cyperus difformis); assay: Test B flooded paddy test; settings: Flood, 250 g ai/ha; scale of 0 to 100, 0 is no effect, 100 is complete control; 13 to 15 d
Protocol: as §3

| SMILES | Plant response rating, Barnyardgrass ([1]; 125 g ai/ha) | Plant response rating, Barnyardgrass ([1]; 500 g ai/ha) | Plant response rating, Corn ([2]; Postemergence, 125 g ai/ha) | Plant response rating, Corn ([2]; Postemergence, 500 g ai/ha) | Plant response rating, Corn ([2]; Preemergence, 125 g ai/ha) | Plant response rating, Corn ([2]; Preemergence, 500 g ai/ha) | Plant response rating, Crabgrass, Large ([3]; Postemergence, 125 g ai/ha) | Plant response rating, Crabgrass, Large ([3]; Postemergence, 500 g ai/ha) | Plant response rating, Crabgrass, Large ([3]; Preemergence, 125 g ai/ha) | Plant response rating, Crabgrass, Large ([3]; Preemergence, 500 g ai/ha) | Plant response rating, Foxtail, Giant ([4]; Postemergence, 125 g ai/ha) | Plant response rating, Foxtail, Giant ([4]; Postemergence, 500 g ai/ha) | Plant response rating, Foxtail, Giant ([4]; Preemergence, 125 g ai/ha) | Plant response rating, Foxtail, Giant ([4]; Preemergence, 500 g ai/ha) | Plant response rating, Morningglory ([5]; Postemergence, 125 g ai/ha) | Plant response rating, Morningglory ([5]; Postemergence, 500 g ai/ha) | Plant response rating, Morningglory ([5]; Preemergence, 125 g ai/ha) | Plant response rating, Morningglory ([5]; Preemergence, 500 g ai/ha) | Plant response rating, Pigweed ([6]; Postemergence, 125 g ai/ha) | Plant response rating, Pigweed ([6]; Postemergence, 500 g ai/ha) | also measured |
| --- | --- | --- | --- | --- | --- | --- | --- | --- | --- | --- | --- | --- | --- | --- | --- | --- | --- | --- | --- | --- | --- |
| Cc1cc(=O)n(-c2ccc(F)cc2)nc1Oc1cc(C(F)(F)F)ccn1 [Compound 10] | 0 | 0 | 0 | 10 | 0 | 0 | 10 | 20 | 0 | 10 | 0 | 10 | 0 | 20 | 30 | 30 | 0 | 0 | 30 | 60 | Plant response rating, Pigweed ([6]; Preemergence, 125 g ai/ha): 0; Plant response rating, Pigweed ([6]; Preemergence, 500 g ai/ha): 30; Plant response rating, Velvetleaf ([7]; Postemergence, 125 g ai/ha): 0; Plant response rating, Velvetleaf ([7]; Postemergence, 500 g ai/ha): 10; Plant response rating, Velvetleaf ([7]; Preemergence, 125 g ai/ha): 0; Plant response rating, Velvetleaf ([7]; Preemergence, 500 g ai/ha): 0; Plant response rating, Wheat ([8]; Postemergence, 125 g ai/ha): 0; Plant response rating, Wheat ([8]; Postemergence, 500 g ai/ha): 0; Plant response rating, Wheat ([8]; Preemergence, 125 g ai/ha): 0; Plant response rating, Wheat ([8]; Preemergence, 500 g ai/ha): 0; Plant response rating, Barnyardgrass [9]: 0; Plant response rating, Ducksalad [10]: 0; Plant response rating, Rice [11]: 0; Plant response rating, Sedge, Umbrella [12]: 0 |
| Cc1cc(Oc2cccc(C(F)(F)F)n2)nn(-c2ccc(F)cc2)c1=O [Compound 11] | 0 | 0 | 0 | 0 | 0 | 0 | 10 | 20 | 0 | 10 | 10 | 20 | 0 | 0 | 20 | 30 | 0 | 0 | 60 | 70 | Plant response rating, Pigweed ([6]; Preemergence, 125 g ai/ha): 0; Plant response rating, Pigweed ([6]; Preemergence, 500 g ai/ha): 0; Plant response rating, Velvetleaf ([7]; Postemergence, 125 g ai/ha): 0; Plant response rating, Velvetleaf ([7]; Postemergence, 500 g ai/ha): 0; Plant response rating, Velvetleaf ([7]; Preemergence, 125 g ai/ha): 0; Plant response rating, Velvetleaf ([7]; Preemergence, 500 g ai/ha): 0; Plant response rating, Wheat ([8]; Postemergence, 125 g ai/ha): 0; Plant response rating, Wheat ([8]; Postemergence, 500 g ai/ha): 0; Plant response rating, Wheat ([8]; Preemergence, 125 g ai/ha): 0; Plant response rating, Wheat ([8]; Preemergence, 500 g ai/ha): 0; Plant response rating, Barnyardgrass [9]: 0; Plant response rating, Ducksalad [10]: 0; Plant response rating, Rice [11]: 0; Plant response rating, Sedge, Umbrella [12]: 0 |
| Cc1cc(=O)n(-c2ccc(F)cc2)nc1Oc1cccc(C(F)(F)F)n1 [Compound 12] | 40 | 70 | 10 | 50 | 0 | 30 | 20 | 70 | 100 | 100 | 20 | 80 | 80 | 100 | 50 | 90 | 0 | 50 | 60 | 90 | Plant response rating, Pigweed ([6]; Preemergence, 125 g ai/ha): 90; Plant response rating, Pigweed ([6]; Preemergence, 500 g ai/ha): 100; Plant response rating, Velvetleaf ([7]; Postemergence, 125 g ai/ha): 40; Plant response rating, Velvetleaf ([7]; Postemergence, 500 g ai/ha): 60; Plant response rating, Velvetleaf ([7]; Preemergence, 125 g ai/ha): 30; Plant response rating, Velvetleaf ([7]; Preemergence, 500 g ai/ha): 70; Plant response rating, Wheat ([8]; Postemergence, 125 g ai/ha): 0; Plant response rating, Wheat ([8]; Postemergence, 500 g ai/ha): 20; Plant response rating, Wheat ([8]; Preemergence, 125 g ai/ha): 0; Plant response rating, Wheat ([8]; Preemergence, 500 g ai/ha): 0; Plant response rating, Barnyardgrass [9]: 20; Plant response rating, Ducksalad [10]: 0; Plant response rating, Rice [11]: 20; Plant response rating, Sedge, Umbrella [12]: 0 |
